These are literature values, as cited in patent US20250302774A1, “LISDEX[…] OROD[…] AND PROCESS FOR PREPARATION THEREOF” (ATHENA PHARM[…], priority 2024, published 2025).

Where two headings read alike, the source gives them in different places.

For series [1] the following is noted: active substance, exposed to moisture, dimethanesulfonate.

In the case of `CS(=O)(=O)O.CS(=O)(=O)O.C[C@@H](Cc1ccccc1)NC(=O)[C@@H](N)CCCCN` [Lisdexamfetamine dimesylate, (2S)-2,6-diamino-N-[(1S)-1-methyl-2-phenylethyl]-hexanamide, dimethanesulfonate], the “hygroscopic / deliquescent nature” value is on record as “highly deliquescent” in series [1] and “hygroscopic” in series [1] (listed as lisdexamfetamine dimesylate). Besides, the solubility entry runs as follows: (in acetone) “very slightly soluble”; (in chloroform) “very slightly soluble”; (in ethanol) “soluble”; (in methanol) “freely soluble”; (in tetrahydrofuran) “practically insoluble”; (in toluene) “very slightly soluble”.
